Consider 16 molecules from patent publication US10357484B2, “Heterocyclic compound” (Takeda Pharmaceutical Company Limited, priority 2015, dated 2019).

Format in all cases: biochemical
For assay [1], the target named is T1, HDAC1 enzyme (Homo sapiens, UniProt Q13547).
T1 construct: transducing full length HDAC1 and HDAC6 genes into Sf-9 insect cells; GST; purchased SignalChem; host or cells: Sf-9 insect cells
Nature of the assay: HDAC1 enzyme inhibitory assay (HDAC-Glo I/II Assay kit). Particulars: 1 μM test compound; wells without enzyme = 100% inhibition; read-out: HDAC1 inhibitory rate (%) (1 μM). As to the method:
(§1) HDAC1/6 Enzyme Inhibitory Assay
(§2) HDAC1 enzyme and HDAC6 enzyme each prepared by transducing full length HDAC1 and HDAC6 genes into Sf-9 insect cells and purifying by GST affinity column were purchased from SignalChem. Using these enzymes, HDAC1 and/or HDAC6 enzyme inhibitory activities of the compound of the present invention were evaluated. Enzymes were used after preserved at −70° C. HDAC1 or HDAC6 enzyme inhibitory activity of the compound of the present invention was measured using HDAC-Glo™ I/II Assay kit (Promega) according to the following experimental method. The test compound diluted with assay buffer (24 mM Tris-HCl (pH 7.5), 1 mM MgCl2, 0.35 mM KCl, 135 mM NaCl, 0.6 mM Glutathione, 0.01% Tween-20) was added to a 384-well plate by each 2 μL. Then, HDAC1 or HDAC6 enzyme solution diluted with assay buffer was added thereto by each 4 μL, and the plate was incubated at room temperature for 60 min. After incubated, HDAC substrate-Developer solution prepared according to Promega protocol attached to the assay kit was added to the 384-well plate by each 2 μL, and the enzyme reaction was started. After reacting at room temperature for 20 min, luminescence level was measured using plate reader Envision (PerkinElmer). The inhibitory activity of each compound was calculated as a relative activity value when luminescence level in wells without enzyme is considered as 100% inhibition.

Assay [2] concerns the target T2, HDAC9 enzyme (Homo sapiens, UniProt Q9UKV0).
T2 construct: transducing full length HDAC9 gene into Sf-9 insect cells; made in house; host or cells: Sf-9 insect cells
Nature of the assay: HDAC9 enzyme inhibitory assay (HDAC-Glo class IIa). Particulars: 1 μM test compound; wells without enzyme = 100% inhibition; read-out: HDAC9 inhibitory rate (%) (1 μM). The procedure:
HDAC9 Enzyme Inhibitory Assay
Enzyme was prepared by transducing full length HDAC9 gene into Sf-9 insect cells and purifying by Ni-NTA affinity column, and HDAC9 enzyme inhibitory activity was evaluated. Enzymes were used after preserved at −70° C. HDAC9 enzyme inhibitory activity of the test compound was measured using HDAC-Glo class IIa (Promega) according to the following experimental method. The test compound diluted with assay buffer (24 mM Tris-HCl (pH 7.5), 1 mM MgCl2, 0.35 mM KCl, 135 mM NaCl, 0.6 mM Glutathione, 0.01% Tween-20) was added to a 384-well plate by each 2 μL. Then, HDAC9 enzyme solution diluted with assay buffer was added thereto by each 2 μL, and the plate was incubated at room temperature for 60 min. After incubated, HDAC substrate-Developer solution prepared according to Promega protocol was added to the 384-well plate by each 4 μL, and the enzyme reaction was started. After reacting at room temperature for 20 min, luminescence level was measured using plate reader Envision (PerkinElmer). The inhibitory activity of each compound was calculated as a relative activity value when luminescence level in wells without enzyme is considered as 100% inhibition.

Assay [3] concerns the target T3, HDAC6 enzyme (Homo sapiens, UniProt Q9UBN7).
T3 construct: transducing full length HDAC1 and HDAC6 genes into Sf-9 insect cells; GST; purchased SignalChem; host or cells: Sf-9 insect cells
T3 sequence (Q9UBN7 1-1215): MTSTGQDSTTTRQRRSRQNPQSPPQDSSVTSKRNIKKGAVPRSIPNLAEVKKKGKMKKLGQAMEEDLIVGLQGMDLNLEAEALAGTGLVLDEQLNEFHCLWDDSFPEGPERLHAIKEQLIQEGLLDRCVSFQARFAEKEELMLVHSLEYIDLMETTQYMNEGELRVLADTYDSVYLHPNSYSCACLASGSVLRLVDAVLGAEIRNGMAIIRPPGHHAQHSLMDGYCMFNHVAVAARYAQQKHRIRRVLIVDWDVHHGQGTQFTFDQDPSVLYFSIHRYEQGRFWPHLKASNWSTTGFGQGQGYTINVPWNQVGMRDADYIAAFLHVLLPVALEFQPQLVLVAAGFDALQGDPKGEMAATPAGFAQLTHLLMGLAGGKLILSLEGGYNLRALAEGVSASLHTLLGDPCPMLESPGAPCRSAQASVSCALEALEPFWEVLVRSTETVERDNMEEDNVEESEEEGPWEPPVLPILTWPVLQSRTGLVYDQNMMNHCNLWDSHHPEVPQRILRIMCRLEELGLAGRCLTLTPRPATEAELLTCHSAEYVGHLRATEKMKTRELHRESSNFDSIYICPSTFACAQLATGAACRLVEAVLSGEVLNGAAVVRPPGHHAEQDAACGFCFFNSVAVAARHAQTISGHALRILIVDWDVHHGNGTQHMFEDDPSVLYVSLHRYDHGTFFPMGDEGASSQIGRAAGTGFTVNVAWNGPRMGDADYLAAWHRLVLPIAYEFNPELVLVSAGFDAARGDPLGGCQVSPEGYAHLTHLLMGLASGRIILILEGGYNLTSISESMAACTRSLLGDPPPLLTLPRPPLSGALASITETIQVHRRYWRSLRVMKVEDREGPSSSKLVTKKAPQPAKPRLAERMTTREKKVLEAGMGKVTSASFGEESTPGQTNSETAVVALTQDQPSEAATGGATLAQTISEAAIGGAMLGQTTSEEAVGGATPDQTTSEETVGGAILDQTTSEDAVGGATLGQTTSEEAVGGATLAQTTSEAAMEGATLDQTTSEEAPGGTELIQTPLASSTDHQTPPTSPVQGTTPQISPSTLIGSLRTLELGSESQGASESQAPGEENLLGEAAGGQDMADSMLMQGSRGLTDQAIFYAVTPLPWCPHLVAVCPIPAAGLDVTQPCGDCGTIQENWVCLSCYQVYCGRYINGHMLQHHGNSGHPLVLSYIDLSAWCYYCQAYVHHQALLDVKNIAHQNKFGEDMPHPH
Briefly: HDAC6 enzyme inhibitory assay (HDAC-Glo I/II Assay kit). To be noted: 1 μM test compound; wells without enzyme = 100% inhibition; read-out: HDAC6 inhibitory rate (%) (1 μM). The procedure: as §1, §2

T1 sequence (Q13547 whole entry): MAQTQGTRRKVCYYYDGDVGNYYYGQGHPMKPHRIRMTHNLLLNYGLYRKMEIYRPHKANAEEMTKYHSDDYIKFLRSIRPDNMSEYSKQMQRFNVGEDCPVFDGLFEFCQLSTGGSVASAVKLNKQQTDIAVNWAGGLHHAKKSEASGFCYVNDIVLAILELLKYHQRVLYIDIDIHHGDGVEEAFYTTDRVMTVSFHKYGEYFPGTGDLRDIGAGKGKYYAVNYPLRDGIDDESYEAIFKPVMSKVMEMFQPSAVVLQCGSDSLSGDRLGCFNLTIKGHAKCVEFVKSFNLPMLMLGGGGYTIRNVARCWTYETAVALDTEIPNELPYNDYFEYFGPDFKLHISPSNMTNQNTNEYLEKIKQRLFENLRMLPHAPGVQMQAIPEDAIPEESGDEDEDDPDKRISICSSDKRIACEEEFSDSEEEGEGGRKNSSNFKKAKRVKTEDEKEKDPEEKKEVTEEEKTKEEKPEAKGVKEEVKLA
T2 sequence (Q9UKV0 whole entry, species assumed): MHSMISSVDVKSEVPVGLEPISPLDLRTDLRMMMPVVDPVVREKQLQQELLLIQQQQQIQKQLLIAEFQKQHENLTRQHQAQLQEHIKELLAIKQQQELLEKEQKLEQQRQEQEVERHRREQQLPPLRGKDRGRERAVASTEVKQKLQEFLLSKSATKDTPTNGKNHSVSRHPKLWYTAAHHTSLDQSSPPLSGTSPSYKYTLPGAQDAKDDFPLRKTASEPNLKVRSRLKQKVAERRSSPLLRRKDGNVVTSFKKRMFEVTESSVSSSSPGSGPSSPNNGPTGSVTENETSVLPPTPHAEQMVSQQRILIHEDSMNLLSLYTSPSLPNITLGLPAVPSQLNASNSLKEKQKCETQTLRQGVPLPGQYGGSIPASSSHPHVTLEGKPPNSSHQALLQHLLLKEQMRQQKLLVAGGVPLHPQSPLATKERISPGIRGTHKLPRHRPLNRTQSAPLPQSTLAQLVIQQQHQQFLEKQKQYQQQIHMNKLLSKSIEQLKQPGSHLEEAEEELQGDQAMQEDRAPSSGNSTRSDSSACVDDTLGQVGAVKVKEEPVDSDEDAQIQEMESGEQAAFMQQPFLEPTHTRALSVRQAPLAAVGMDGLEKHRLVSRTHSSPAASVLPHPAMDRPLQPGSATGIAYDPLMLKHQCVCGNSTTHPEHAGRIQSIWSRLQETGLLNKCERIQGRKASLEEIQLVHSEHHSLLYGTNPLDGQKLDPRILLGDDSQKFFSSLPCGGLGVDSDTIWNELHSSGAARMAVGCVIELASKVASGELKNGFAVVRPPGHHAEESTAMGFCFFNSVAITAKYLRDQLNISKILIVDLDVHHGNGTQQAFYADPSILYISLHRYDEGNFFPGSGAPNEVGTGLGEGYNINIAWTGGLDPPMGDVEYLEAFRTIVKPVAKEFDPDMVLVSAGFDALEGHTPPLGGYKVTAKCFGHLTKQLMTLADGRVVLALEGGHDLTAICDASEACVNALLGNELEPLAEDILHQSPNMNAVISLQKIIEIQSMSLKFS

As to `N#Cc1ccc(CN2Cc3ccc(-c4noc(C(F)(F)F)n4)cc3C2=O)cc1` [Example 29, 4-((1-oxo-6-(5-(trifluoromethyl)-1,2,4-oxadiazol-3-yl)-1,3-dihydro-2H-isoindol-2-yl)methyl)benzonitrile], the inhibition at 1 µM in assay [1] was 23%; in assay [2] it was 74%; in assay [3] it was 94%.

For the molecule `C[C@@H](c1ccc(Cl)cc1)N1Cc2ccc(-c3noc(C(F)(F)F)n3)cc2C1=O` [Example 14, 2-((1S)-1-(4-chlorophenyl)ethyl)-6-(5-(trifluoromethyl)-1,2,4-oxadiazol-3-yl)isoindolin-1-one], the inhibition at 1 µM came to 9% in assay [1], 76% in assay [2] and 88% in assay [3].

For the molecule `C[C@@H](c1ccccc1)N1Cc2ncc(-c3noc(C(F)(F)F)n3)cc2C1=O` [Example 40, 6-((1S)-1-phenylethyl)-3-(5-(trifluoromethyl)-1,2,4-oxadiazol-3-yl)-6,7-dihydro-5H-pyrrolo[3,4-b]pyridin-5-one], the values for the inhibition at 1 µM in assay [1], in assay [2] and in assay [3] were 52%, 93% and 97%, respectively.

`CC(c1cccnc1)N1Cc2ncc(-c3noc(C(F)(F)F)n3)cc2C1=O` (stereo not drawn) [Example 5, 6-(1-(pyridin-3-yl)ethyl)-3-(5-(trifluoromethyl)-1,2,4-oxadiazol-3-yl)-6,7-dihydro-5H-pyrrolo[3,4-b]pyridin-5-one]: the inhibition at 1 µM in assay [1] stood at 43%; in assay [2], 93%; in assay [3] it was 97%.

Take `COc1ccc([C@H](C)N2Cc3ccc(-c4noc(C(F)(F)F)n4)cc3C2=O)cc1` [Example 18, 2-((1S)-1-(4-methoxyphenyl)ethyl)-6-(5-(trifluoromethyl)-1,2,4-oxadiazol-3-yl)isoindolin-1-one]: the inhibition at 1 µM came to 27% in assay [1], 89% in assay [2] and 91% in assay [3].

With `C[C@@H](c1cccc(F)c1)N1Cc2ccc(-c3noc(C(F)(F)F)n3)cc2C1=O` [Example 16, 2-((1S)-1-(3-fluorophenyl)ethyl)-6-(5-(trifluoromethyl)-1,2,4-oxadiazol-3-yl)isoindolin-1-one], the inhibition at 1 µM in assay [1] turned out to be 20%; in assay [2], 85%; in assay [3], 95%.

As to `Cc1csc(CN2Cc3ccc(-c4noc(C(F)(F)F)n4)cc3C2=O)n1` [Example 37, 2-((4-methyl-1,3-thiazol-2-yl)methyl)-6-(5-(trifluoromethyl)-1,2,4-oxadiazol-3-yl)isoindolin-1-one], the inhibition at 1 µM in assay [1] was found to be 20%; in assay [2] it was 84%; in assay [3], 96%.

Consider `O=C1c2cc(-c3noc(C(F)(F)F)n3)ccc2CN1Cc1ccccc1F` [Example 24, 2-(2-fluorobenzyl)-6-(5-(trifluoromethyl)-1,2,4-oxadiazol-3-yl)isoindolin-1-one], for which the figures for the inhibition at 1 µM in assay [1], in assay [2] and in assay [3] were 17%, 75% and 97%, respectively.

In the case of `COc1cc(CN2Cc3ccc(-c4noc(C(F)(F)F)n4)cc3C2=O)ccc1OCC1CCCO1` (stereo not drawn) [Example 31, 2-(3-methoxy-4-(tetrahydrofuran-2-ylmethoxy)benzyl)-6-(5-(trifluoromethyl)-1,2,4-oxadiazol-3-yl)isoindolin-1-one], the results for the inhibition at 1 µM in assay [1], in assay [2] and in assay [3] were 40%, 92% and 94%, respectively.

As for `C[C@@H](c1ccc(F)cc1)N1Cc2ccc(-c3noc(C(F)(F)F)n3)cc2C1=O` [Example 13, 2-((1S)-1-(4-fluorophenyl)ethyl)-6-(5-(trifluoromethyl)-1,2,4-oxadiazol-3-yl)isoindolin-1-one], the inhibition at 1 µM came to 14% in assay [1], 79% in assay [2] and 90% in assay [3].

Regarding `O=C1c2cc(-c3noc(C(F)(F)F)n3)ccc2CN1Cc1cccc(Oc2ccccc2)c1` [Example 10, 2-(3-phenoxybenzyl)-6-(5-(trifluoromethyl)-1,2,4-oxadiazol-3-yl)isoindolin-1-one], the results for the inhibition at 1 µM in assay [1], in assay [2] and in assay [3] were 15%, 52% and 28%, respectively.

`O=C1c2cc(-c3noc(C(F)(F)F)n3)ccc2CN1Cc1c(F)cccc1F` [Example 27, 2-(2,6-difluorobenzyl)-6-(5-(trifluoromethyl)-1,2,4-oxadiazol-3-yl)isoindolin-1-one]: the inhibition at 1 µM came to 21% in assay [1], 76% in assay [2] and 96% in assay [3].

With `CC(c1ccccc1)N1Cc2ncc(-c3noc(C(F)(F)F)n3)cc2C1=O` (stereo not drawn) [Example 2, 6-(1-phenylethyl)-3-(5-(trifluoromethyl)-1,2,4-oxadiazol-3-yl)-6,7-dihydro-5H-pyrrolo[3,4-b]pyridin-5-one], the results for the inhibition at 1 µM in assay [1], in assay [2] and in assay [3] were 57%, 92% and 100%, respectively.

`C[C@@H](c1ccc(F)cc1F)N1Cc2ccc(-c3noc(C(F)(F)F)n3)cc2C1=O` [Example 17, 2-((1S)-1-(2,4-difluorophenyl)ethyl)-6-(5-(trifluoromethyl)-1,2,4-oxadiazol-3-yl)isoindolin-1-one]: the results for the inhibition at 1 µM in assay [1], in assay [2] and in assay [3] were 12%, 74% and 95%, respectively.

Take `C[C@@H](c1cccc2ccccc12)N1Cc2ccc(-c3noc(C(F)(F)F)n3)cc2C1=O` [Example 22, 2-((1S)-1-(1-naphthyl)ethyl)-6-(5-(trifluoromethyl)-1,2,4-oxadiazol-3-yl)isoindolin-1-one]: the inhibition at 1 µM in assay [1] was 3%; in assay [2], 82%; in assay [3] it was 92%.

Take `N#Cc1cccc(CN2Cc3ccc(-c4noc(C(F)(F)F)n4)cc3C2=O)c1` [Example 28, 3-((1-oxo-6-(5-(trifluoromethyl)-1,2,4-oxadiazol-3-yl)-1,3-dihydro-2H-isoindol-2-yl)methyl)benzonitrile]: the inhibition at 1 µM in assay [1] was found to be 26%; in assay [2], 82%; in assay [3], 95%.
